Measurements taken from patent US6436990B1, “6-methoxy-2-naphthylacetic acid prodrugs” (Nobex Corporation, priority 1999, dated 2002).

Tests used:
Rat Paw Edema = assay: Rat Paw Edema; format: in vivo; settings: for % Inhibition: one dose per compound (Dose column, mg/kg): Nabumetone 79.0, 6-MNA 75.0, Indomethacin 10.0, Example 1 94.3, Example 2 121.0, Example 3 94.9, Example 4 121.0
[1] = oral administration; cited from earlier work

SMILES | melting point | % Inhibition (Rat Paw Edema) | ED50 (Rat Paw Edema) | share of orally administered nabumetone transferred in vivo into 6MNA [1]
COc1ccc2c(c1)c(CC(=O)O)c(C)n2C(=O)c1ccc(Cl)cc1 [Indomethacin, reference compound] |  | 51% |  | 
COc1ccc2cc(CCC(C)=O)ccc2c1 [Nabumetone, nabumetone, reference compound] |  | 60% | 35.9 mg/kg | about 35%
COc1ccc2cc(CC(=O)O)ccc2c1 [Example 6-MNA, 6-methoxy-2-naphthylacetic acid] |  | 45% |  | 
COc1ccc2cc(CC(=O)OCCOCCO[N+](=O)[O-])ccc2c1 [Example 2, (6-Methoxy-naphthalen-2-yl)-acetic acid 2-(2-nitrooxy-ethoxy)-ethyl ester] |  | 57% |  | 

More lines, main results first:

melting point | SMILES | % Inhibition (Rat Paw Edema) | ED50 (Rat Paw Edema) | share of orally administered nabumetone transferred in vivo into 6MNA [1]
234 to 236 °C | COc1ccc2cc(CC(N)=O)ccc2c1 [Example 10, 2-(6-methoxy-naphthalen-2-yl)-acetamide] |  |  | 
38 to 40 °C | CCOC(=O)COC(=O)Cc1ccc2cc(OC)ccc2c1 [Example 4, (6-methoxy-naphthalen-2-yl)-acetic acid ethoxycarbonylmethyl ester] | 38% |  | 
190 to 192 °C (dec.) | COc1ccc2cc(CC(=O)OCC(=O)O)ccc2c1 [Example 3, (6-methoxy-naphthalen-2-yl)-acetic acid carboxymethyl ester] | 58% |  | 
122 to 124 °C | COc1ccc2cc(CC(=O)OCC(C)=O)ccc2c1 [Example 1, (6-methoxy-naphthalen-2-yl)-acetic acid 2-oxo-propyl ester] | 65% | 33.9 mg/kg | 
129 °C | COCCNC(=O)Cc1ccc2cc(OC)ccc2c1 [Example 8, N-(2-methoxy-ethyl)-2-(6-methoxy-naphthalen-2-yl)-acetamide] |  |  | 
